Data published in patent US20090005424A9, “Composition and Method for Treating Fibrotic Diseases” (priority 2005, published 2009).
Marks after values point to notes of the source that are not given here.

Experiments:
Kidney Fibroblast = assay: MTT proliferation assay, mouse kidney fibroblast; assay type: cell-based; settings: for order of inhibitory effect: kidney fibroblast
Experimental: Cell proliferation was measured by MTT assay. DMEM with 10% fetal serum was used as cell culture medium. The cells were prepared in suspension (1×10^5/ml), and 100 μL of the suspension was transferred to each well of a 96 wells plate. Once the cells were attached to the plastic, the culture was changed to serum free medium and continued for another 24 hours. The serum free medium was aspirated, and various concentrations of 1-(3′-fluorophenyl)-5-methyl-2(1H)-pyridone (AKF-PD) 1-(3′-bromophenyl)-5-methyl-2(1H)-pyridone (AKF-BR) or PIRFENIDONE (PFD) in 10% serum medium were added into each well with 5 replicates for each concentration. The cells were stained with MTT (10 μL per well) at 24, 48, and 72 hours post drug treatment. After 4 hrs of incubation, the medium with MTT was aspirated from each well. One hundred μL MTT solvent was added to each well for 15 min. The dissolved MTT was then measured with a plate reader at 570 nm.

[1] = system: ICR mice injected with bleomycin; assay: Bleomycin-induced mouse pulmonary fibrosis, histological score of lung tissue; assay type: in vivo; settings: AKF-PD and PFD 500 mg/kg, captopril 12.5 mg/kg by gavage day 1 to 28, Szapiel's method
Experimental: Under regular care condition, 7-10 weeks old, male, institute of cancer research (ICR) mice, weight 28-39 g, were randomly grouped as normal control, disease, disease/AKF-PD, disease/PFD and disease Captopril group.
Control group was injected with normal saline once day from day 2 to 15 days. Disease, disease/AKF-PD, disease/PFD and disease/captopril groups were injected with bleomycin once day from day 2 to 15. Control and disease groups were given 0.5% CMC by gavage once a day from day 1 to day 28. 500 mg/kg of AKF-PD CMC suspension and PD CMC suspension and 12.5 mg/kg captopril in saline were administered to respective groups by gavage once day from day 1 to day 28. All animals were sacrificed on day 29 and their lungs were removed for pathological (HE staining) examination.
Histological scoring for the lung tissue was done according Szapiel's method.

[2] = system: Human Skin Scar Forming Fibroblasts; assay: MTT proliferation assay, human skin scar forming fibroblasts; assay type: cell-based
Experimental: In the following examples, myocardiac fibroblasts, skin scar forming fibroblast and human peritoneal mesothelial cells are primary cultures prepared according to common procedure. Other cells are commercially purchased. 1-(3-fluorophenyl)-5-methyl-2(1H)-pyridone (AKF-PD) is prepared as a suspension in 5% carboxymethylcellulose.
(§1) Cell proliferation was measured by MTT assay. DMEM with 10% fetal serum was used as cell culture medium. The cells were prepared in suspension (1×10^5/ml), and 100 μL of the suspension was transferred to each well of a 96 wells plate. Once the cells were attached to the plastic, the culture was changed to serum free medium and incubated for another 24 hours. Then, the serum free medium was aspirated, and various concentrations of 1-(3′-fluorophenyl)-5-methyl-2(1H)-pyridone (AKF-PD) or PIRFENIDONE (PFD) in 10% serum medium were added into each well with 5 replicates for each concentration. The cells were stained with MTT (10 μL per well) at 12, 24, or 48 hours post drug treatment. After 4 hrs of incubation, the medium with MTT was aspirated from each well. One hundred μL MTT solvent was added to each well for 15 min, and the dissolved MTT was measured with a plate reader at 570 nm.

Human Stellate Cells = assay: MTT proliferation assay, human stellate cells; assay type: cell-based
Experimental: as §1, with “MTT was then measured with” for “MTT was measured with”

[3] = system: SD rat, renal interstitial fibrosis induced by surgical ligation of single side ureter; assay: Rat ureter ligation model of renal interstitial fibrosis, AKF-PD vs PFD (Example 12); assay type: in vivo; settings: ureter-ligated rats; PFD 500 mg/kg/d, AKF-PD 500 mg/kg/d by gavage; 14 days post surgery
Experimental: Anti-fibrotic effect of AKF-PD was tested on a SD rat model for renal interstitial fibrosis induced by surgical ligation of single side ureter. Male SD rats (180 g˜220 g) were randomly divided into disease model group, PFD (500 mg/kg/d) group and AKF-PD (500 mg/kg/d) group. […] The respective drugs were administrated by gavage to rats in the groups of PFD and AKF-PD from one day prior to the procedure to 14 days post surgical procedure. Normal saline was administrated in a similar fashion to the rats in the groups of disease model. The animals were sacrificed 14 days after surgical procedure and their kidney were removed for pathological (HE staining) examination.

| SMILES | Optical Density at 570 nm (Kidney Fibroblast; 100 μg/ml, 24 h) | Optical Density at 570 nm (Kidney Fibroblast; 100 μg/ml, 48 h) | Optical Density at 570 nm (Kidney Fibroblast; 100 μg/ml, 72 h) | Optical Density at 570 nm (Kidney Fibroblast; 500 μg/ml, 24 h) | Optical Density at 570 nm (Kidney Fibroblast; 500 μg/ml, 48 h) | Optical Density at 570 nm (Kidney Fibroblast; 500 μg/ml, 72 h) | Optical Density at 570 nm (Kidney Fibroblast; 1000 μg/ml, 24 h) | Optical Density at 570 nm (Kidney Fibroblast; 1000 μg/ml, 48 h) | Optical Density at 570 nm (Kidney Fibroblast; 1000 μg/ml, 72 h) | order of inhibitory effect (Kidney Fibroblast) | Histological Score for Lung Tissue, Mean [1] | Optical Density at 570 nm ([2]; 100 μg/ml, 12 h) | Optical Density at 570 nm ([2]; 100 μg/ml, 24 h) | Optical Density at 570 nm ([2]; 100 μg/ml, 48 h) | Optical Density at 570 nm ([2]; 500 μg/ml, 12 h) | Optical Density at 570 nm ([2]; 500 μg/ml, 24 h) | Optical Density at 570 nm ([2]; 500 μg/ml, 48 h) | Optical Density at 570 nm ([2]; 1000 μg/ml, 12 h) | Optical Density at 570 nm ([2]; 1000 μg/ml, 24 h) | Optical Density at 570 nm ([2]; 1000 μg/ml, 48 h) | also measured |
| --- | --- | --- | --- | --- | --- | --- | --- | --- | --- | --- | --- | --- | --- | --- | --- | --- | --- | --- | --- | --- | --- |
| Cc1ccc(=O)n(-c2cccc(F)c2)c1 [AKF-PD, 1-(3′-fluorophenyl)-5-methyl-2(1H)-pyridone] | 0.5907 ± 0.0199 | 0.5850 ± 0.0134 | 0.5080 ± 0.0145 | 0.5799 ± 0.1086 | 0.5185 ± 0.0331 | 0.4314 ± 0.0264 | 0.5638 ± 0.0142 | 0.4298 ± 0.0258 | 0.3511 ± 0.0215 | AKF-PD>AKF-BR>pirfenidone | 2.0000 | 0.192 ± 0.010 | 0.245 ± 0.002 | 0.366 ± 0.006 | 0.192 ± 0.006 | 0.238 ± 0.004 | 0.345 ± 0.007 | 0.192 ± 0.009 | 0.221 ± 0.004 | 0.323 ± 0.009 | inhibition of proliferation of kidney fibroblast (Kidney Fibroblast): capable of inhibiting the proliferation of kidney fibroblast; Optical Density at 570 nm ([2]; 2500 μg/ml, 12 h): 0.190 ± 0.002; Optical Density at 570 nm ([2]; 2500 μg/ml, 24 h): 0.198 ± 0.008; Optical Density at 570 nm ([2]; 2500 μg/ml, 48 h): 0.267 ± 0.001; anti-proliferative potency compared with PIRFENIDONE ([2]; human skin fibroblasts): more potent anti-proliferative agent than PIRFENIDONE; Optical Density at 570 nm (Human Stellate Cells; 100 μg/ml, 12 h): 0.202 ± 0.001; Optical Density at 570 nm (Human Stellate Cells; 100 μg/ml, 24 h): 0.366 ± 0.002; Optical Density at 570 nm (Human Stellate Cells; 100 μg/ml, 48 h): 0.442 ± 0.006; Optical Density at 570 nm (Human Stellate Cells; 500 μg/ml, 12 h): 0.202 ± 0.001; Optical Density at 570 nm (Human Stellate Cells; 500 μg/ml, 24 h): 0.341 ± 0.003; Optical Density at 570 nm (Human Stellate Cells; 500 μg/ml, 48 h): 0.406 ± 0.002; Optical Density at 570 nm (Human Stellate Cells; 1000 μg/ml, 12 h): 0.198 ± 0.001; Optical Density at 570 nm (Human Stellate Cells; 1000 μg/ml, 24 h): 0.312 ± 0.003; Optical Density at 570 nm (Human Stellate Cells; 1000 μg/ml, 48 h): 0.385 ± 0.004; Optical Density at 570 nm (Human Stellate Cells; 2500 μg/ml, 12 h): 0.195 ± 0.002; Optical Density at 570 nm (Human Stellate Cells; 2500 μg/ml, 24 h): 0.273 ± 0.005; Optical Density at 570 nm (Human Stellate Cells; 2500 μg/ml, 48 h): 0.246 ± 0.001; anti-proliferative potency compared with PIRFENIDONE (Human Stellate Cells; human stellate cells): more potent anti-proliferative agent than PIRFENIDONE; Histological Score for Interstitial Compartment [3]: 7.11 ± 1.38 |
| Cc1ccc(=O)n(-c2ccccc2)c1 [PFD, 5-methyl-1-phenyl-2(1H)-pyridone, reference compound] | 0.5911 ± 0.1002 | 0.5844 ± 0.0171 | 0.5264 ± 0.1530 | 0.5877 ± 0.1204 | 0.5450 ± 0.0196 | 0.4798 ± 0.2355 | 0.5798 ± 0.0149 | 0.5272 ± 0.0229 | 0.4269 ± 0.0302 | AKF-PD>AKF-BR>pirfenidone | 2.0909 | 0.194 ± 0.004 | 0.250 ± 0.003 | 0.366 ± 0.006 | 0.191 ± 0.008 | 0.245 ± 0.004*^+ | 0.350 ± 0.003***^++ | 0.190 ± 0.008 | 0.330 ± 0.001*^++ | 0.328 ± 0.004***^++ | Optical Density at 570 nm ([2]; 2500 μg/ml, 12 h): 0.193 ± 0.004; Optical Density at 570 nm ([2]; 2500 μg/ml, 24 h): 0.278 ± 0.001***^+++; Optical Density at 570 nm ([2]; 2500 μg/ml, 48 h): 0.264 ± 0.005; Optical Density at 570 nm (Human Stellate Cells; 100 μg/ml, 12 h): 0.206 ± 0.003; Optical Density at 570 nm (Human Stellate Cells; 100 μg/ml, 24 h): 0.371 ± 0.001; Optical Density at 570 nm (Human Stellate Cells; 100 μg/ml, 48 h): 0.447 ± 0.003; Optical Density at 570 nm (Human Stellate Cells; 500 μg/ml, 12 h): 0.202 ± 0.001; Optical Density at 570 nm (Human Stellate Cells; 500 μg/ml, 24 h): 0.345 ± 0.002; Optical Density at 570 nm (Human Stellate Cells; 500 μg/ml, 48 h): 0.413 ± 0.001***^++; Optical Density at 570 nm (Human Stellate Cells; 1000 μg/ml, 12 h): 0.201 ± 0.001; Optical Density at 570 nm (Human Stellate Cells; 1000 μg/ml, 24 h): 0.330 ± 0.001***^++; Optical Density at 570 nm (Human Stellate Cells; 1000 μg/ml, 48 h): 0.402 ± 0.001***^++; Optical Density at 570 nm (Human Stellate Cells; 2500 μg/ml, 12 h): 0.198 ± 0.001; Optical Density at 570 nm (Human Stellate Cells; 2500 μg/ml, 24 h): 0.278 ± 0.001***^+; Optical Density at 570 nm (Human Stellate Cells; 2500 μg/ml, 48 h): 0.306 ± 0.002***^+++; Histological Score for Interstitial Compartment [3]: 8.06 ± 2.41 |
